Experimental data as given in patent US20250123290A1, “BIOTIN-FREE PROXIMITY LABELING” (HOWARD HUGHES MEDICAL INSTITUTE, priority 2023, published 2025).

Key:
[1] = tested on: APEX2 in the mouse brain; assay: CLA-tyramide (CLA-phenol) mediated proximity labeling in mouse brain; type: in vivo; settings: mouse brain samples; FIGS. 4A-4B
Protocol: CLA-tyramide (CLA-phenol) mediated proximity labeling was conducted in mouse brain. […] The mouse brain samples were fixed, permeabilized, and incubated with HaloTag protein. The samples were then stained with antibodies against HaloTag and V5 (on APEX2) to label CLA-tagged proteins and APEX2, respectively.

[2] = tested on: cultured primary neurons expressing LAMP1-APEX2-V5; assay: CLA-tyramide proximity labeling of neuronal lysosomal proteins, imaging with HaloTag protein and antibody staining; type: cell-based, rat; settings: 150 μM CLA-tyramide, FIG. 2C
Description: The exemplary system studied in this Example makes use of a unique substrate for proximity labeling, which is a CLA-phenol compound, which in some cases is referred to herein as a CLA-tyramide compound. As will be appreciated, the chemical structure of tyramide includes a phenol moiety. To establish efficacy, the exemplary system was used to detect proteins that are enriched in neuronal lysosomes with lysosome-targeted APEX2 (Lamp1-APEX2).
With reference to FIG. 2A, cultured primary neurons expressing LAMP1-APEX2-V5 were incubated with 0 μM, 50 μM, 150 μM, or 500 μM CLA-tyramide, respectively. Neurons were fixed, permeabilized, and incubated with HaloTag protein. Cells were then stained with antibodies against HaloTag, V5, and MAP5 to label CLA-tagged proteins, LAMP1-APEX2-V5 (lysosome APEX2), and neurons, respectively.
Line scans show the relative intensity of CLA-tagged proteins and LAMP1-APEX2-V5.

[3] = tested on: cilia and mitochondria; assay: CLA-tyramide labeling in cilia and mitochondria, detection with EGFP-HaloTag protein; type: cell-based; settings: 250 μM CLA-tyramide; FIGS. 3B and 3D
Protocol: CLA-tyramide labeling was conducted in cilia and mitochondria. FIGS. 3A and 3B show CLA-tyramide labeling in cilia. FIGS. 3C and 3D show CLA-tyramide labeling in mitochondria. FIGS. 3B and 3D are from experiments in which 250 μM CLA-tyramide was applied to cells. Cells were fixed, permeabilized, and incubated with EGFP-HaloTag protein.

With `O=C(NCCOCCOCCCCCCCl)NCCc1ccc(O)cc1` [CLA-tyramide] the “co-localization of CLA-tagged proteins and APEX2 (V5)” value [1] was “good co-localization of most structures”, the “colocalization of CLA-tagged proteins and LAMP1-APEX2-V5 (line scans of relative intensity)” value [2] was “Good colocalization” and the “labeling in different subcellular compartments (cilia, mitochondria)” value [3] was “can be applied to different subcellular compartments”.
